PubChem BioAssay (NCI)
Where “and” joins values, the source holds several entries; their conditions need not be identical. Identical values can stand only once.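 In this assay, cells in 96-well plates receive the compound at five concentrations for 48 hours. Endpoints are linearly interpolated between the surrounding concentrations. At the GI50, growth is halved. The concentration for full growth arrest is given as TGI.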

How the values were obtained:
Assay in all cases: NCI anticancer screen, dose series, 48 h
[1] = tested on: M14 melanoma
[2] = tested on: HS 578T breast
[3] = tested on: BT-549 breast
[4] = tested on: NCI-H460 lung
[5] = tested on: SK-OV-3 ovarian
[6] = tested on: HT29 colon
[7] = tested on: LOX IMVI melanoma
[8] = tested on: UACC-62 melanoma
[9] = tested on: RXF 393 renal
[10] = tested on: UACC-257 melanoma

Structure (SMILES) | GI50 [1] | TGI [1] | GI50 [2] | TGI [2] | GI50 [3] | TGI [3] | GI50 [4] | TGI [4] | GI50 [5] | TGI [5] | GI50 [6] | TGI [6] | GI50 [7] | TGI [7] | GI50 [8] | TGI [8] | GI50 [9] | TGI [9] | GI50 [10] | TGI [10]
COc1cc2c(cc1NC(=O)C(Cl)Cl)-c1ccc(NC(=O)C(Cl)Cl)cc1C2 | 3.14 µM | 16.5 µM | 0.953 µM | > 34.7 µM | 1.74 µM | 13.3 µM | 0.25 µM | 0.69 µM | 6.67 µM | 20.6 µM | 0.201 µM | 0.641 µM | 5.43 µM | 18.1 µM | 0.586 µM | 2.07 µM | 0.429 µM | 1.66 µM | 1.02 µM | 3.54 µM
O=c1[nH]c(=S)[nH]c(-c2ccccc2)c1Cc1c(O)ccc2ccccc12 |  | 78.5 µM |  | > 100 µM |  | 90.7 µM |  | > 100 µM |  | > 100 µM |  | > 100 µM |  | > 100 µM |  | 52.4 µM |  | 95.1 µM |  | 62.7 µM
O=C(c1ccco1)c1c(C(F)(F)F)n([O-])c2cc(F)c(F)cc2[n+]1=O | 0.225 µM | 0.528 µM | 0.655 µM | 2.63 µM | 0.163 µM | 0.389 µM | 0.252 µM | 5.78 µM | 0.346 µM | 1.11 µM | 0.609 µM | > 100 µM |  | 0.459 µM | 0.242 µM | 0.76 µM | 0.193 µM | 0.531 µM | 1.29 µM | 3.01 µM
N#Cc1cc2c(cc1Cl)Sc1nnc(Nc3cccc4ccccc34)n1S2(=O)=O | 3.81 µM | 22.8 µM | 2.89 µM | 9.74 µM | 14.6 µM | 28.9 µM | 13.8 µM | 33.8 µM | 17.4 µM | 35.1 µM | 3.96 µM | 12.7 µM | 3.17 µM | 10.3 µM | 2.14 µM | 5.28 µM | 2.02 µM | 4.15 µM | 14.8 µM | 30.1 µM
C#CCNC(=O)NC(CCCCNC(=O)OCc1ccccc1)C(=O)OCc1ccccc1 (centres undefined) |  | 58.4 µM |  | > 100 µM |  | > 100 µM |  | > 100 µM |  | > 100 µM |  | > 56.2 µM |  | > 88.4 µM |  | 33.6 µM |  | 43.1 µM |  | 43.9 µM
COc1ccc(OC)c(Cc2cnc3nc(N)nc(N)c3c2C)c1 |  | > 41.9 µM |  | 49.7 µM |  | 43.8 µM |  | 12.2 µM |  | 27.2 µM |  | 20 µM |  | 25.6 µM |  | > 71.2 µM |  | 21.9 µM |  | 47.4 µM
NCc1ccc(-c2nc(-c3ccc(Cl)c(O)c3)c(-c3ccncc3)[nH]2)cc1 | 5.47 µM | 24.7 µM | 11.9 µM | > 25 µM | > 25 µM | > 25 µM | > 25 µM | > 25 µM | > 25 µM | > 25 µM | > 25 µM | > 25 µM | 16.7 µM | > 25 µM | 2.53 µM | > 25 µM | > 19.2 µM | > 25 µM | 3.63 µM | 17.4 µM
CN1C(=NCCO)NS(=O)(=O)c2ccccc21 |  | > 100 µM |  | > 100 µM |  | > 100 µM |  | > 100 µM |  | > 100 µM |  | > 100 µM |  | > 100 µM |  | > 100 µM |  | > 100 µM |  | > 100 µM
O=S(=O)(NCCCNc1nccc(-c2c(-c3ccc(F)cc3)nc3sccn23)n1)c1ccc(F)cc1 | 7.06 µM | > 100 µM | 9.66 µM | > 100 µM | 3.9 µM | 31.2 µM | 5.62 µM | > 100 µM | 17.1 µM | > 100 µM | 3.52 µM | 21.4 µM | 6.28 µM | > 100 µM | 4.68 µM | 50.7 µM | 3.67 µM | 70.8 µM | 21.9 µM | > 100 µM
O=C1/C(=C/c2ccccc2[N+](=O)[O-])COc2ccc(O)cc21 | 1.9 µM | 4.85 µM | 2.39 µM | 41.6 µM | 2.3 µM | 5.23 µM | 2.1 µM | 5.04 µM | 5.25 µM | 17.6 µM | 0.397 µM | 3.07 µM | 1.05 µM | 2.27 µM | 1.52 µM | 3.08 µM | 1.23 µM | 3.02 µM | 2.16 µM | 7.13 µM
N#Cc1c(NC(=O)c2ccccc2F)sc2c1CCCC2 | > 25 µM | > 25 µM | > 21.9 µM | > 25 µM | > 20.3 µM | > 25 µM | > 19.5 µM | > 25 µM | > 25 µM | > 25 µM | 10.4 µM | > 25 µM | > 25 µM | > 25 µM | 18.1 µM | > 25 µM | > 25 µM | > 25 µM | > 25 µM | > 25 µM
N#CCNC(=O)c1ccc(-c2ccnc(Nc3ccc(N4CCOCC4)cc3)n2)cc1 | 4.47 µM and 4.29 µM | > 100 µM | 0.506 µM and 0.42 µM | 4.86 µM and 12.9 µM | 2.24 µM and 1.54 µM | > 10 µM and 5.8 µM | 2.5 µM and 1.36 µM | > 10 µM and 11.3 µM | 4.04 µM and 3.83 µM | > 10 µM and 24.7 µM | 5.71 µM and 5.38 µM | > 100 µM | 1.74 µM and 1.35 µM | > 44.9 µM | 4.44 µM and 3.66 µM | > 57.8 µM | 1.11 µM and 0.345 µM | 3.09 µM and 1.7 µM | > 10 µM and 4.39 µM | > 100 µM
O=C(c1cc(Cc2n[nH]c(=O)c3ccccc23)ccc1F)N1CCN(C(=O)C2CC2)CC1 | 73.3 µM and > 86 µM | > 100 µM | 12.4 µM and > 100 µM | > 100 µM | 32.2 µM and 33.6 µM | > 100 µM | 9.25 µM and 9.96 µM | > 100 µM | > 100 µM | > 100 µM | > 100 µM | > 100 µM | 18.9 µM and 66.3 µM | > 100 µM | 67.9 µM and 76.2 µM | > 100 µM | 52.1 µM and > 41.4 µM | > 100 µM | > 100 µM | > 100 µM
Nc1nc(-c2ccc(Cl)cc2)nc2c1sc(=S)n2-c1ccccc1 | 7.87 µM | 38.1 µM | 3.31 µM | 9.39 µM | 6.5 µM | > 100 µM | 3.31 µM | 10.2 µM | 3.83 µM | 14.5 µM | 6.09 µM | > 100 µM | 2.07 µM | 4.91 µM | 4.32 µM | 22.6 µM | 2.51 µM | 6.19 µM | 6.58 µM | 32 µM
